Test results reported in patent publication US8722629B2, “Auristatin derivatives and use thereof” (Seattle Genetics, Inc., priority 2010, dated 2014).
Where a name gives a salt, the structure may show the parent alone. Non-standard residues stand in square brackets, D forms with d. Residues, ends and D or L forms follow the SMILES beside them. *: point of attachment. NMeVal(N-(CH2)3COOH) = CC(C)[C@@H](C(=O)*)N(C)CCCC(=O)O; Dolaproine = CO[C@@H]([C@@H]1CCCN1)[C@@H](C)C(=O)O; Dil = CC[C@H](C)[C@H](NC)[C@@H](CC(=O)O)OC; X7 = COC(=O)CCCN(C)[C@H](C(=O)*)C(C)C; X5 = CC(C)[C@@H](C(=O)*)N(C)CCO; Oxazinan2yl(1,2) = C1CCN(*)OC1; NMeV = CN[C@H](C(=O)O)C(C)C; X3 = c1ccc2c(c1)CON(*)C2; X6 = C1=CC2CCC1ON2*

Experiments:
[1] = system: human colon carcinoma cell line HT29 wt (wild type); experiment: Antiproliferative effect on the HT29 wt cell line (MTT assay); assay type: cell-based; conditions: 10% FCS, incubation 48 h to 96 h
Protocol: B-2. Determination of the Antiproliferative Effect on the HT29 Wt Cell Line:
A defined cell number of the human colon carcinoma cell line HT29 wt (wild type) was sown in a 96-well microtiter plate in complete medium (10% FCS-RPMI) (2500 cells/well) and incubated at 37° C./5% CO2 overnight. After 18 h, the sowing medium was replaced by fresh medium with 10% FCS. Treatment was initiated by addition of the respective test substance. From the substances to be investigated, dose/activity curves in a concentration range of from 10^−5 M to 10^−14 M (1:10-dilution series) were determined. The chosen incubation times were from 48 h to 96 h. Pro-liferation was determined with the aid of the MTT assays (ATCC, Manassas, Va., USA, catalogue No. 30-1010K). After the incubation time, the MTT reagent was incubated with the cells for 4 h, and the cells were subsequently lysed by adding the detergent overnight. The dye formed was detected at 570 nm. Proliferation of cells which had not been treated with test substance, but had otherwise been treated identically, was defined as 100%. The data obtained from this test are triple determinations, and at least two independent experiments were carried out.

[2] = system: human renal cancer cell line 786-0; experiment: Antiproliferative effect on the 786-0 RCC cell line (MTT assay); assay type: cell-based; conditions: incubation 48 h to 96 h
Protocol: B-1. Determination of the Antiproliferative Effect on the 786-0 RCC Cell Line:
A defined cell number of the human renal cancer cell line 786-0 was sown in a 96-well microtiter plate in complete medium (2500 or 7000 cells/well) and incubated at 37° C./5% CO2 overnight. After 18 h, the sowing medium was replaced by serum-free medium or medium with 2% FCS. Treatment was initiated by addition of the respective test substance in varying concentration (10^−5 M to […]). The chosen incubation times were from 48 h to 96 h. Proliferation was determined with the aid of the MTT assays (ATCC, Manassas, Va., USA, catalogue No. 30-1010K). After the incubation time, the MTT reagent was incubated with the cells for 4 h, and the cells were subsequently lysed by adding the detergent overnight. The dye formed was detected at 570 nm. […] The data obtained from this test are triple determinations, and at least two independent experiments were carried out.

[3] = Homo sapiens, HT-29, HT29 wt cells
[4] = Homo sapiens, 786-0, 786-0 cells

Compound	IC50 [1, 3]	IC50 [2, 4]	further results
CC[C@H](C)[C@@H]([C@@H](CC(=O)N1CCC[C@H]1[C@H](OC)[C@@H](C)C(=O)N[C@@H](Cc1ccccc1)C(=O)N1CCCCO1)OC)N(C)C(=O)[C@@H](NC(=O)[C@H](C(C)C)N(C)CCCC(=O)OC)C(C)C [Example 29, N-(4-Methoxy-4-oxobutyl)-N-methyl-L-valyl-N-[(3R,4S,5S)-3-methoxy-1-{(2S)-2-[(1R,2R)-1-methoxy-2-methyl-3-{[(2S)-1-(1,2-oxazinan-2-yl)-1-oxo-3-phenylpropan-2-yl]amino}-3-oxopropyl]pyrrolidin-1-yl}-5-methyl-1-oxoheptan-4-yl]-N-methyl-L-valinamide] (X7-V[Dil][Dolaproine]F-{Oxazinan2yl(1,2)})	0.1 nM		
CC[C@H](C)[C@@H]([C@@H](CC(=O)N1CCC[C@H]1[C@H](OC)[C@@H](C)C(=O)N[C@@H](Cc1ccccc1)C(=O)N1CCCCO1)OC)N(C)C(=O)[C@@H](NC(=O)[C@H](C(C)C)N(C)CCO)C(C)C [Example 2, N-(2-Hydroxyethyl)-N-methyl-L-valyl-N-[(3R,4S,5S)-3-methoxy-1-{(2S)-2-[(1R,2R)-1-methoxy-2-methyl-3-{[(2S)-1-(1,2-oxazinan-2-yl)-1-oxo-3-phenylpropan-2-yl]amino}-3-oxopropyl]pyrrolidin-1-yl}-5-methyl-1-oxoheptan-4-yl]-N-methyl-L-valinamide] (X5-V[Dil][Dolaproine]F-{Oxazinan2yl(1,2)})	0.5 nM		
CC[C@H](C)[C@@H]([C@@H](CC(=O)N1CCC[C@H]1[C@H](OC)[C@@H](C)C(=O)N[C@@H](Cc1ccccc1)C(=O)N1OC2C=CC1CC2)OC)N(C)C(=O)[C@@H](NC(=O)[C@@H](NC)C(C)C)C(C)C (stereo partly drawn) [Example 6, N-Methyl-L-valyl-N-[(3R,4S,5S)-3-methoxy-1-{(2S)-2-[(1R,2R)-1-methoxy-2-methyl-3-{[(2S)-1-(2-oxa-3-azabicyclo[2.2.2]oct-5-en-3-yl)-1-oxo-3-phenylpropan-2-yl]amino}-3-oxopropyl]pyrrolidin-1-yl}-5-methyl-1-oxoheptan-4-yl]-N-methyl-L-valinamide, trifluoroacetic acid salt] (H-[NMeV]V[Dil][Dolaproine]F-X6)		0.5 nM	
CC[C@H](C)[C@@H]([C@@H](CC(=O)N1CCC[C@H]1[C@H](OC)[C@@H](C)C(=O)N[C@@H](Cc1ccccc1)C(=O)N1CCCCO1)OC)N(C)C(=O)[C@@H](NC(=O)[C@H](C(C)C)N(C)CCCC(=O)O)C(C)C [Example 24, N-(3-Carboxypropyl)-N-methyl-L-valyl-N-[(3R,4S,5S)-3-methoxy-1-{(2S)-2-[(1R,2R)-1-methoxy-2-methyl-3-{[(2S)-1-(1,2-oxazinan-2-yl)-1-oxo-3-phenylpropan-2-yl]amino}-3-oxopropyl]-pyrrolidin-1-yl}-5-methyl-1-oxoheptan-4-yl]-N-methyl-L-valinamide] ({NMeVal(N-(CH2)3COOH)}-V[Dil][Dolaproine]F-{Oxazinan2yl(1,2)})	1.5 nM	5 nM	
CC[C@H](C)[C@@H]([C@@H](CC(=O)N1CCC[C@H]1[C@H](OC)[C@@H](C)C(=O)N[C@@H](Cc1ccccc1)C(=O)N1Cc2ccccc2CO1)OC)N(C)C(=O)[C@@H](NC(=O)[C@@H](NC)C(C)C)C(C)C [Example 8, N-Methyl-L-valyl-N-[(3R,4S,5S)-1-{(2S)-2-[(1R,2R)-3-{[(2S)-1-(1,4-dihydro-3H-2,3-benzoxazin-3-yl)-1-oxo-3-phenylpropan-2-yl]amino}-1-methoxy-2-methyl-3-oxopropyl]pyrrolidin-1-yl}-3-methoxy-5-methyl-1-oxoheptan-4-yl]-N-methyl-L-valinamide, trifluoroacetic acid salt] (H-[NMeV]V[Dil][Dolaproine]F-X3)		2.4 nM	
CC[C@H](C)[C@@H]([C@@H](CC(=O)N1CCC[C@H]1[C@H](OC)[C@@H](C)C(=O)N[C@@H](Cc1ccccc1)C(=O)O)OC)N(C)C(=O)[C@@H](NC(=O)[C@@H](NC)C(C)C)C(C)C [MMAF, Monomethylauristatin F, reference compound] (H-[NMeV]V[Dil][Dolaproine]F-OH)			IC50 ([2]; 786-0 cells): 260 nM; IC50 ([1]; HT29 wt cells): 10 nM
CC[C@H](C)[C@@H]([C@@H](CC(=O)N1CCC[C@H]1[C@H](OC)[C@@H](C)C(=O)N[C@@H](Cc1c[nH]c2ccccc12)C(=O)N1CCCCO1)OC)N(C)C(=O)[C@@H](NC(=O)[C@@H](NC)C(C)C)C(C)C [Example 9, N-Methyl-L-valyl-N-[(3R,4S,5S)-1-{(2S)-2-[(1R,2R)-3-{[(2S)-3-(1H-indol-3-yl)-1-(1,2-oxazinan-2-yl)-1-oxopropan-2-yl]amino}-1-methoxy-2-methyl-3-oxopropyl]pyrrolidin-1-yl}-3-methoxy-5-methyl-1-oxoheptan-4-yl]-N-methyl-L-valinamide, trifluoroacetic acid salt] (H-[NMeV]V[Dil][Dolaproine]W-{Oxazinan2yl(1,2)})	1.4 nM	3 nM	
CC[C@H](C)[C@@H]([C@@H](CC(=O)N1CCC[C@H]1[C@H](OC)[C@@H](C)C(=O)N[C@@]1(C(=O)N2CCCCO2)C[C@@H]1c1ccccc1)OC)N(C)C(=O)[C@@H](NC(=O)[C@H](C(C)C)N(C)CCCCCC(=O)O)C(C)C [Example 26, N-(5-Carboxypentyl)-N-methyl-L-valyl-N-[(3R,4S,5S)-3-methoxy-1-{(2S)-2-[(1R,2R)-1-methoxy-2-methyl-3-{[(1S,2R)-1-(1,2-oxazinan-2-ylcarbonyl)-2-phenylcyclopropyl]amino}-3-oxopropyl]-pyrrolidin-1-yl}-5-methyl-1-oxoheptan-4-yl]-N-methyl-L-valinamide]		18 nM	
